Laboratory results reported in patent US20020136789A1, “Use of tagetes minuta oil and its components as antiviral agents” (COUNCIL OF SCIENTIFIC & INDUSTRIAL RESEARCH, priority 2001, published 2002).
Where “and” joins values, the source holds several entries; their conditions need not be identical. Equal entries are not always repeated.

Legend:
mosquito = details: in vivo; cited from earlier work
HSV-1 = details: concentrations 12-47 μg/ml; cited from earlier work
Cox B1 = details: concentrations 12-47 μg/ml; cited from earlier work
8 bacterial strains = details: cited from earlier work
[1] = tested on: Carnation vein mottle virus (CaVMV); assay: Local lesion assay of CaVMV on Chenopodium amaranticolor leaves (test half leaf vs virus+buffer control); assay type: in vivo; details: for Percentage Inhibition of CaVMV, IInd Treatment: compounds after extraction, summary of three experiments; for Percentage Inhibition of CaVMV, IIIrd Treatment: compounds after storing at 0° C.; for No. of Lesions on Test / % inhibition / Average No. of lesions Test / Test (number of lesions): CaVMV; for No. of Lesions on Test: 24 hrs room temperature, ten leaves; for No. of Lesions on Test / % inhibition / Average No. of lesions Test: Chenopodium amaranticolor; for Test (number of lesions): compound stored at 0° C. for two months; for antiviral activity against CaVMV (in words): components tested individually in pure form
Description: (§1) Each concentration of whole Tagetes minuta oil and its pure isolated components were applied on 10 leaves so that the average could be taken.
(§2) The whole oil of Tagetes minuta and its pure components i.e. ocimene and dihydrotagetone were tested individually with virus cultures of CaVMV and CaRSV and applied on the leaves of Chenopodium amaranticolor. In all the experiments each concentration of three testing mixtures were applied on ten leaves of Chenopodium amaranticolor palnt. The isolated compounds were stored at 0° C. for two months and the experiments were repeated.
(§3) The Cultures of Carnation ring spot and Carnation vein motto viruses were maintained both in natural host and on Phaseolus vulgaris and Chenopodium quinoa which are maintenance and propagation host of these viruses respectively. For virus culture, leaves of fifteen days old individual virus inoculated host plants with CaVMV and CaRSV were ground in phosphate buffer pH 7.5 and the viruses were extracted separately in crude sap.
(§4) Activity of the above volatile oils were tested against Carnation ring spot and Carnation vein mottle virus in different dilutions. Most of the tests were performed by using 0.5% and 2.5% concentration of essential oils as the phytotoxic effect appeared on Chenopodium amaranticolor leaves, at higher concentrations. The 0.5% and 2.5% concentration of essential oils were mixed with crude sap containing each virus and incubated at room temperature for 24 hrs. After incubation, sap containing virus were inoculated individually on bioassay host Chenopodium amaranticolor after adding Cellite (as abrasive) to monitor the inhibitory effect. Following results were obtained in different concentrations.

[2] = tested on: Carnation ring spot virus (CaRSV); assay: Local lesion assay of CaRSV on Chenopodium amaranticolor leaves (test half leaf vs virus+buffer control); assay type: in vivo; details: for Percentage Inhibition of CaRSV, IInd Treatment: compounds after extraction, summary of three experiments; for Percentage Inhibition of CaRSV, IIIrd Treatment: compounds after storing at 0° C.; for No. of Lesions on Test / % inhibition / Average No. of lesions Test / Test (number of lesions): CaRSV; for No. of Lesions on Test: 24 hrs room temperature, ten leaves; for No. of Lesions on Test / % inhibition / Average No. of lesions Test: Chenopodium amaranticolor; for Test (number of lesions): compound stored at 0° C. for two months; for antiviral activity against CaRSV (in words): components tested individually in pure form
Description: as §1, §2, §3, §4

HIV replication = details: cited from earlier work
PVX [3] = details: susceptible viruses such as PVX; cited from earlier work
PVX [4] = details: cited from earlier work
PNRSV = details: in vivo; cited from earlier work
TMV = details: except during very early replicative steps following inoculation; cited from earlier work
BGMV = details: in vivo; cited from earlier work
SSV = details: in vivo; cited from earlier work
CaMV = details: in vivo; cited from earlier work
[5] = 0.5% concentration mixed with crude sap
[6] = 2.5% concentration mixed with crude sap

## C=C/C(C)=C/C(=O)C=C(C)C [5-E Ocimenone]
mosquito
  mosquito larvaecideal activity: mosquito larvaecideal activity

## O=c1c(O)c(-c2ccccc2)oc2cc(O)cc(O)c12 [galangin]
HSV-1
  antiviral activity against HSV-1: significant antiviral activity
Cox B1
  antiviral activity against Cox B1: significant antiviral activity

## CC(C)[C@]12CC(=O)[C@H](C)[C@H]1C2 [thujone]
8 bacterial strains
  activity against 8 bacterial strains: exhibited activity

## C=CC(C)CC(=O)CC(C)C (stereo not shown) [Dihydrotagetone, dihydrotagetone]
[1]; 0.5%
  Percentage Inhibition of CaVMV, IInd Treatment: 72.2%
  Percentage Inhibition of CaVMV, IIIrd Treatment: 100%
[1]; 2.5%
  Percentage Inhibition of CaVMV, IInd Treatment: 83.6%
  Percentage Inhibition of CaVMV, IIIrd Treatment: 100%
[1]; [5]
  No. of Lesions on Test: 38 and 40 and 45
[1]; 0.5% concentration
  % inhibition: 73.04% and 73.3% and 70.3%
  Average No. of lesions Test: 4.22 and 4.44 and 5.00
  Test (number of lesions): 0
[1]; [6]
  No. of Lesions on Test: 31 and 25 and 38
[1]; 2.5% concentration
  % inhibition: 83.0% and 87.0% and 81.0%
  Average No. of lesions Test: 3.44 and 2.77 and 4.20
  Test (number of lesions): 0
[1]
  antiviral activity against CaVMV (in words): enhanced antiviral activity
[2]; 0.5%
  Percentage Inhibition of CaRSV, IInd Treatment: 71.6%
  Percentage Inhibition of CaRSV, IIIrd Treatment: 100%
[2]; 2.5%
  Percentage Inhibition of CaRSV, IInd Treatment: 81.06%
  Percentage Inhibition of CaRSV, IIIrd Treatment: 100%
[2]; [5]
  No. of Lesions on Test: 32 and 41 and 42
[2]; 0.5% concentration
  % inhibition: 72.1% and 70.9% and 72.0%
  Average No. of lesions Test: 4.22 and 4.44 and 5.00
  Test (number of lesions): 0
[2]; 2.5% concentration
  % inhibition: 81.8% and 82.0% and 79.4%
  Average No. of lesions Test: 2.8 and 2.5 and 4.0
  Test (number of lesions): 0
[2]
  antiviral activity against CaRSV (in words): enhanced antiviral activity

## CC1=CC[C@@H]([C@@H](C)[C@H]2CC[C@@]3(C)C4=C(C=C(CCC(=O)O)C(=C(C)C)C=C4)CC[C@]23C)OC1=O [Compound 3]
HIV replication; HIV replication
  therapeutic index: greater than 71.4
HIV replication
  EC50, inhibition of HIV replication: 1400 µg/mL

## CC12CCC(CC1=O)C2(C)C (stereo not shown) [Camphor, camphor]
8 bacterial strains
  activity against 8 bacterial strains: almost inactive

## NC(=O)c1ncn([C@@H]2O[C@H](CO)[C@@H](O)[C@H]2O)n1 [ribavirin, Ribavirin]
PVX [3]
  concentration needed to inhibit local lesion development and to prevent infection: Approximately 1000 ppm
PVX [4]; 10 ppm, differentiating calli
  developing shoots into which virus spread was prevented: 90%
PVX [4]; 100 ppm in the medium
  inhibition of PVX in callus culture: not inhibited
PNRSV
  susceptibility of PNRSV: resistant
TMV
  susceptibility of TMV: much less susceptible than other viruses
BGMV
  effectiveness against BGMV: relatively or completely ineffective
SSV
  effectiveness against SSV: relatively or completely ineffective
CaMV
  effectiveness against CaMV: relatively or completely ineffective

## C=C/C(C)=C\CC=C(C)C [Ocimene, Z-β-ocimene]
[1]; 0.5%
  Percentage Inhibition of CaVMV, IInd Treatment: 70.2%
  Percentage Inhibition of CaVMV, IIIrd Treatment: 100%
[1]; 2.5%
  Percentage Inhibition of CaVMV, IInd Treatment: 84.3%
  Percentage Inhibition of CaVMV, IIIrd Treatment: 100%
[1]; [5]
  No. of Lesions on Test: 66 and 70 and 65
[1]; 0.5% concentration
  % inhibition: 71.05% and 63.50% and 72.1%
  Average No. of lesions Test: 6.6 and 7.0 and 6.5
  Test (number of lesions): 0
[1]; [6]
  No. of Lesions on Test: 43 and 40 and 38
[1]; 2.5% concentration
  % inhibition: 83.58% and 84.00% and 85.66%
  Average No. of lesions Test: 4.3 and 4.0 and 3.8
  Test (number of lesions): 0
[1]
  antiviral activity against CaVMV (in words): enhanced antiviral activity
[2]; 0.5%
  Percentage Inhibition of CaRSV, IInd Treatment: 67.9%
  Percentage Inhibition of CaRSV, IIIrd Treatment: 100%
[2]; 2.5%
  Percentage Inhibition of CaRSV, IInd Treatment: 80.9%
  Percentage Inhibition of CaRSV, IIIrd Treatment: 100%
[2]; [5]
  No. of Lesions on Test: 60 and 65 and 58
[2]; 0.5% concentration
  % inhibition: 69.6% and 66.6% and 67.7%
  Average No. of lesions Test: 6.0 and 6.5 and 5.8
  Test (number of lesions): 0
[2]; [6]
  No. of Lesions on Test: 40 and 25 and 35
[2]; 2.5% concentration
  % inhibition: 80.4% and 81.4% and 81.0%
  Average No. of lesions Test: 4.0 and 2.5 and 3.5
  Test (number of lesions): 0
[2]
  antiviral activity against CaRSV (in words): enhanced antiviral activity

## CC12CCC(CC1)C(C)(C)O2 [1,8 cineole]
8 bacterial strains
  activity against 8 bacterial strains: exhibited activity
